{
  "source": "paper PMC12217679",
  "about": "(Scientific Reports, 2025)",
  "key": {"cholesterol metabolism": {"system": "cholesterol metabolism", "details": "cited from earlier work"}, "[1]": {"molecular_target": "T1, human intestinal alkaline phosphatase (hIAP) (Homo sapiens, UniProt P09923)", "T1 sequence (P09923 20-503 limits assumed)": "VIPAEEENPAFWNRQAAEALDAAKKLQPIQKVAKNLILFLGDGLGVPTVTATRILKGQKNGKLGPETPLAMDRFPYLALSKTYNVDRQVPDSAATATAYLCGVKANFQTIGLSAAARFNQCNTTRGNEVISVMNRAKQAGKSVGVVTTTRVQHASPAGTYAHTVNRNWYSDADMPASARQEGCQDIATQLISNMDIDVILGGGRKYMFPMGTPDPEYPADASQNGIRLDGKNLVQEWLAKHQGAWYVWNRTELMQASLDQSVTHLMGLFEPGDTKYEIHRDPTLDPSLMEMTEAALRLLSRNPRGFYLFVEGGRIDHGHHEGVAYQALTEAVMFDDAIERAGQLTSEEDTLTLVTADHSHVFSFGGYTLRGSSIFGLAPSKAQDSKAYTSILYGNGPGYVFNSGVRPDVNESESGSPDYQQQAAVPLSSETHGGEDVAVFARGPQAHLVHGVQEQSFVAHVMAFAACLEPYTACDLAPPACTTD", "assay": "SPR competition of IIAEK binding to hIAP by PLP", "details": "IIAEK 297 μM, PLP 0, 1000 and 2000 μM, HBS-N pH 7.4"}, "DPP4": {"molecular_target": "DPP4", "details": "read-out: dissociation constant (Kd) with DPP4; cited from earlier work"}, "mouse liver": {"system": "mouse liver", "details": "cited from earlier work"}, "hepatic NPC1L1": {"system": "hepatic NPC1L1", "details": "cited from earlier work"}},
  "data": [
    {"compound": "VHVV", "values": [
      {"measurement": "improvement of cholesterol metabolism in animal studies", "setting": "cholesterol metabolism", "result": "effectively improve cholesterol metabolism"}
    ]},
    {"compound": "VSEE", "values": [
      {"measurement": "improvement of cholesterol metabolism in animal studies", "setting": "cholesterol metabolism", "result": "effectively improve cholesterol metabolism"}
    ]},
    {"compound": "Cc1ncc(COP(=O)(O)O)c(C=O)c1O", "note": "[PLP, Pyridoxal 5′-phosphate]", "values": [
      {"measurement": "competition with IIAEK for hIAP", "setting": "[1]", "result": "competes for the interaction between IIAEK and hIAP in a concentration-dependent manner"}
    ]},
    {"compound": "GLP-1: DPP4 substrate", "values": [
      {"measurement": "Kd", "setting": "DPP4", "result": 153, "unit": "µM"}
    ]},
    {"compound": "VAWWMY", "values": [
      {"measurement": "improvement of cholesterol metabolism in animal studies", "setting": "cholesterol metabolism", "result": "effectively improve cholesterol metabolism"}
    ]},
    {"compound": "GEQQQPGM", "values": [
      {"measurement": "improvement of cholesterol metabolism in animal studies", "setting": "cholesterol metabolism", "result": "effectively improve cholesterol metabolism"}
    ]},
    {"compound": "VFVRN", "values": [
      {"measurement": "improvement of cholesterol metabolism in animal studies", "setting": "cholesterol metabolism", "result": "effectively improve cholesterol metabolism"}
    ]},
    {"compound": "HIRL", "values": [
      {"measurement": "improvement of cholesterol metabolism in animal studies", "setting": "cholesterol metabolism", "result": "effectively improve cholesterol metabolism"}
    ]},
    {"compound": "O=C1[C@H](CC[C@H](O)c2ccc(F)cc2)[C@@H](c2ccc(O)cc2)N1c1ccc(F)cc1", "note": "[ezetimibe]", "values": [
      {"measurement": "hepatic mRNA levels of Hmgcr and Srebf2", "setting": "mouse liver", "result": "increasing hepatic mRNA levels of Hmgcr and Srebf2"},
      {"measurement": "liver cholesterol levels", "setting": "mouse liver", "result": "decreases liver cholesterol levels"},
      {"measurement": "hepatic NPC1L1-induced hepatic lipids accumulation", "setting": "hepatic NPC1L1", "result": "eliminated"}
    ]}
  ]
}
